# Measured values reported in patent publication US10744114B2, “Use of eupatilin as pharmaceutical composition for prevention and treatment of fibrosis using EMT inhibitory activity” (OSTEONEUROGEN INC., priority 2016, dated 2020).
# Assays:
# [1] = tested on: ONGHEPA1 cells; experiment: TGF-β-induced fibrosis of ONGHEPA1 cells (microscope); assay type: cell-based, mouse; details: for inhibition of the progress of fibrosis (differentiation into myofibroblasts): TGF-β 5 ng/mL plus 50 μM compound, 24 hr
# Source text: The liver tissue was separated from C57BL/6 mice and a single-cell suspension thereof was made, and immortalized cells were obtained through continuous culture and were confirmed to be mesenchymal stem cells (MSC) of HSC via RT-PCR (Reverse Transcription Polymerase Chain Reaction) using MC (Immunohistochemistry) and FACS (Fluorescence-Activated Cell Sorting). This cell line was called “ONGHEPA1”, and was deposited with the Korean Collection for Type Cultures (KCTC) of the Korea Research Institute of Bioscience and Biotechnology and assigned accession number KCTC13086BP.
# Using such properties of HSC, the fibrotic characteristics of ONGHEPA1 were measured. To induce fibrosis, TGF-β (transforming growth factor beta) was added, and the morphologies of the cells were observed after 6 hr, 12 hr, 24 hr, and 48 hr. Consequently, fibrosis was confirmed to progress considerably after 24 hr and further progress after 48 hr (A of FIG. 6).
# While ONGHEPA1 cells were incubated, they were treated with TGF-β to induce fibrosis, and 50 μM of eupatilin was added to the culture medium.
# In order to more clearly evaluate the effect of eupatilin as above, changes were measured when ONGHEPA1 cells were first treated with eupatilin, washed to remove eupatilin and then treated with TGF-β to induce fibrosis. […] This means that eupatilin is directly associated with the course of fibrosis to thus inhibit the progress of fibrosis.
# On the contrary, changes were measured when ONGHEPA1 cells were first treated with TGF-β to induce fibrosis, washed to remove TGF-β and then treated with eupatilin. […] Even when fibrosis was already progressed, eupatilin was able to restore the cells to their original normal condition.
# In order to more clearly evaluate whether eupatilin was able to restore the cells that already undergone fibrosis to normal cells, changes were measured when ONGHEPA1 cells were treated with TGF-β for 24 hr to induce complete fibrosis and then treated with eupatilin. […] This means that fibrosis that has progressed considerably can be effectively treated using eupatilin.
# The effects of various chromone derivatives other than eupatilin on fibrosis were measured in the same manner as in Example 3-3. While ONGHEPA1 cells were incubated, fibrosis was induced by TGF-β, and a chromone derivative was added at a concentration of 50 μM to the culture medium.
# [2] = Observation of toxic symptoms and death after administration; assay type: in vivo, C57BL/6J mice; details: 2 to 3 days after administration, nasal, bleomycin-treated mice
# Protocol: Eupatilin was used by being dissolved in a DPBS buffer (containing 1% DMSO), and the amount of eupatilin that was administered was 1 mL/kg, and the dose for each individual was calculated based on the recent body weight thereof 12 days after the administration of bleomycin, eupatilin was forcibly nasally administered once a day (5 times a week) for 1 week using a micropipette.
structure (smiles),measurement,setting,value
"COc1ccc(-c2cc(=O)c3c(O)c(OC)c(O)cc3o2)cc1OC [eupatilin, 2-(3,4-dimethoxyphenyl)-5,7-dihydroxy-6-methoxy-chromone]",inhibition of the progress of fibrosis (differentiation into myofibroblasts),[1],fibrosis were not observed
same,inhibition of the progress of fibrosis (differentiation into myofibroblasts),[1]; listed as Chemical Formula 2,superior fibrosis-inhibiting effects
same,restoration of cells after TGF-β pretreatment,"[1]; TGF-β 1 to 12 hr, washed, then eupatilin 50 μM 24 hr",normal cells such as a control group were maintained
same,restoration of completely fibrotic cells,"[1]; TGF-β 24 hr, washed, then eupatilin 50 μM and TGF-β 24 hr",restore the cells in which fibrosis has been completely induced by TGF-β to their normal condition
same,inhibition of the progress of fibrosis after pretreatment,"[1]; eupatilin 2 to 6 hr, washed, then TGF-β 24 hr",the progress of fibrosis was not inhibited
same,influence on normal HSC,"[1]; eupatilin pretreatment, washed, then TGF-β",no influence on normal HSC
same,toxic symptoms and occurrence of death,[2],no particularly abnormal symptoms were observed
